For 21 compounds, IC50 results are on record in patent US11827627B2, “N-(hydroxyalkyl (hetero)aryl) tetrahydrofuran carboxamides as modulators of sodium channels” (VERTEX PHARMACEUTICALS INCORPORATED, priority 2021, dated 2023).

Some results are limits rather than exact numbers.

In the experiment the target is human NaV 1.8 (Homo sapiens, UniProt Q9Y5Y9). As to the kind of experiment: E-VIPR assay detecting and measuring NaV inhibition properties. It is filed as cell-based. To be noted: HEK cells expressing a truncated form of human NaV 1.8; electrical stimulation, membrane potential FRET dyes. An excerpt: E-VIPR Assay Detecting and Measuring NaV Inhibition Properties
Chain of human NaV 1.8 (Q9Y5Y9 126-1722 limits assumed): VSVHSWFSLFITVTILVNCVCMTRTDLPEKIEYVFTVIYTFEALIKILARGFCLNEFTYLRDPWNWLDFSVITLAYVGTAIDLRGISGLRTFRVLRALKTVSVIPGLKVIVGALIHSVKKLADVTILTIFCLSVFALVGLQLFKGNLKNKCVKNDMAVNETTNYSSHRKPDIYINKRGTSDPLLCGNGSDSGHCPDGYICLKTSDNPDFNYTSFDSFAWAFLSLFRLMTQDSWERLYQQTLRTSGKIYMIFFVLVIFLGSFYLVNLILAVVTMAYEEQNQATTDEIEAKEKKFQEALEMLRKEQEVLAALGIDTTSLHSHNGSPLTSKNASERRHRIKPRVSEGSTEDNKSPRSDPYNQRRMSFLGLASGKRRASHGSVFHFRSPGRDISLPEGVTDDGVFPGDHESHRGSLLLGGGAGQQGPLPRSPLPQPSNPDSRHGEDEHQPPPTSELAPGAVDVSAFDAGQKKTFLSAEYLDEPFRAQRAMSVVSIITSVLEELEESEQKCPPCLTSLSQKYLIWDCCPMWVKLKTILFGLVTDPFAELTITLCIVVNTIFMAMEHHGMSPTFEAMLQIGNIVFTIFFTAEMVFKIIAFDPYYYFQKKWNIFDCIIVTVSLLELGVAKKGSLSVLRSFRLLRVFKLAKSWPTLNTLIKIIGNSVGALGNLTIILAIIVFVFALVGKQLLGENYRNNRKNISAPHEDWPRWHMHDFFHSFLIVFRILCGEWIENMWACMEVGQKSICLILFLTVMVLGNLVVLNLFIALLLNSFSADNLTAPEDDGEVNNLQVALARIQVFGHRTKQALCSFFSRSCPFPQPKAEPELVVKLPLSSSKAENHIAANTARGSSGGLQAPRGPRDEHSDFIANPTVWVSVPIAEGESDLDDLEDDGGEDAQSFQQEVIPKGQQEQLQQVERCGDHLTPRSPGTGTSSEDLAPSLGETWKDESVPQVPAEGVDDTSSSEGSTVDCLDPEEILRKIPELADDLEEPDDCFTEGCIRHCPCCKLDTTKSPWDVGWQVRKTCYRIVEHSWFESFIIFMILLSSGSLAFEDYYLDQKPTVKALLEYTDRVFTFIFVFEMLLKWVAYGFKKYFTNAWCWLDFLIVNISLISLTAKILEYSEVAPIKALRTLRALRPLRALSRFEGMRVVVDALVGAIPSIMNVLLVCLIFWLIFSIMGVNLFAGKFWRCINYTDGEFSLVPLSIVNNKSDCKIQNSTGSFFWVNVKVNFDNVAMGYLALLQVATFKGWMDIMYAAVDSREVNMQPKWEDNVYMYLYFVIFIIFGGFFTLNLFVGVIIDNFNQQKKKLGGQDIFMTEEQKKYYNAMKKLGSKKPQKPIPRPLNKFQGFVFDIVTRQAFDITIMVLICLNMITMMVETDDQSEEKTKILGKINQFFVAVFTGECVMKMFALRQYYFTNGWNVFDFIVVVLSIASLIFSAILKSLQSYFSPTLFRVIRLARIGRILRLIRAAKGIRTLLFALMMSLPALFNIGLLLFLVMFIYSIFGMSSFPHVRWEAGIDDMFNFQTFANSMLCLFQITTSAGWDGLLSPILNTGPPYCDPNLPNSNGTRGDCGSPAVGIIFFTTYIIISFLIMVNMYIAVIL
Sodium ion channels are voltage-dependent proteins that can be activated by inducing membrane voltage changes by applying electric fields. The electrical stimulation instrument and methods of use, referred to as E-VIPR, are described in International Publication No. WO 2002/008748 A3 and C.-J. Huang et al. Characterization of voltage-gated sodium channel blockers by electrical stimulation and fluorescence detection of membrane potential, 24 Nature Biotech. 439-46 (2006), both of which are incorporated by reference in their entirety. The instrument comprises a microtiter plate handler, an optical system for exciting the coumarin dye while simultaneously recording the coumarin and oxonol emissions, a waveform generator, a current- or voltage-controlled amplifier, and parallel electrode pairs that are inserted into assay plate wells. Under integrated computer control, this instrument passes user-programmed electrical stimulus protocols to cells within the wells of the microtiter plate.
16-20 hours prior to running the assay on E-VIPR, HEK cells expressing a truncated form of human NaV 1.8 with full channel activity were seeded into microtiter 384-well plates, pre-coated with matrigel, at a density of 25,000 cells per well. 2.5-5% KIR2.1 Bacmam virus was added to the final cell suspension before seeding into cell plates. HEK cells were grown in Dulbecco's Modified Eagle's Medium (DMEM) supplemented with 10% FBS (Fetal Bovine Serum, qualified; Sigma #F4135), 1% NEAA (Non-Essential Amino Acids, Gibco #11140), 1% HEPES (Gibco #15630), 1% Pen-Strep (Penicillin-Streptomycin; Gibco #15140) and 5 μg/ml Blasticidin (Gibco #R210-01). Cells were expanded in vented cap cell culture flasks, with 90-95% humidity and 5% CO2.
Reagents and Stock Solutions:
100 mg/mL Pluronic F-127 (Sigma #P2443), in dry DMSO
Compound Plates: Corning 384-well Polypropylene Round Bottom #3656
Cell Plates: 384-well tissue culture treated plates (Greiner #781091-2B)
2.5-5% KIR 2.1 Bacmam virus (produced in-house), prepared as described in Section 3.3 of J. A. Fornwald et al., Gene Expression in Mammalian Cells Using BacMam, a Modified Baculovirus System, 1350 Methods in Molecular Biology 95-116 (2016), the entire contents of which are incorporated by reference. The concentration used can be dependent on viral titer of each batch.
5 mM DiSBAC6(3), a voltage sensitive oxonol acceptor (CAS number 169211-44-3; 5-[3-(1,3-dihexylhexahydro-4,6-dioxo-2-thioxo-5-pyrimidinyl)-2-propen-1-ylidene]-1,3-dihexyldihydro-2-thioxo-4,6(1H,5H)-pyrimidinedione), in dry DMSO. The preparation of DiSBAC6(3) is analogous to that of DiSBAC4(3) as described in Voltage Sensing by Fluorescence Resonance Energy Transfer in Single Cells, Gonzalez, J. E. and Tsien, R. Y. (1995) Biophys. J. 69, 1272-1280.
5 mM CC2-DMPE, a commercially available membrane-bound coumarin phospholipid FRET donor (ThermoFisher Scientific catalog number K1017, CAS number 393782-57-5; tetradecanoic acid, 1,1′-[(1R)-1-[8-(6-chloro-7-hydroxy-2-oxo-2H-1-benzopyran-3-yl)-3-hydroxy-3-oxido-8-oxo-2,4-dioxa-7-aza-3-phosphaoct-1-yl]-1,2-ethanediyl]ester) was prepared in dry DMSO. See also, Improved indicators of cell membrane potential that use fluorescence resonance energy transfer, Gonzalez, J. E. and Tsien, R. Y. (1997) Chem. Biol. 4, 269-277.
Voltage Assay Background Suppression Compound (VABSC-1) is prepared in H2O (89-363 mM, range used to maintain solubility)
Human Serum (HS, Millipore #S1P1-01KL, or Sigma SLBR5469V and SLBR5470V as a 50%/50% mixture, for 25% assay final concentration)
Bath 1 Buffer: • Sodium Chloride 160 mM (9.35 g/L), Potassium Chloride, 4.5 mM (0.335 g/L), Glucose 10 mM (1.8 g/L), Magnesium Chloride (Anhydrous) 1 mM (0.095 g/L), Calcium Chloride 2 mM (0.222 g/L), HEPES 10 mM (2.38 g/L) in water. […]
On to `COc1c(C2C(C(=O)Nc3cnc(CO)nc3)OC(C)(C(F)(F)F)C2C)ccc(F)c1C(F)F` (single isomer, unassigned) [Compound 54], for which the IC50 is less than 10 nM.
Next, `COc1c(C2C(C(=O)Nc3cnc(CO)nc3)OC(C)(C(F)(F)F)C2C)ccc(F)c1C(F)F` (single isomer, unassigned) [Compound 55]: 100 to 1000 nM; `COc1c([C@@H]2[C@@H](C(=O)Nc3ccc(C(C)O)nc3)O[C@](C)(C(F)(F)F)[C@@H]2C)ccc(F)c1C(F)F` (single isomer, unassigned) [Compound 57]: no less than 1000 nM; `C[C@@]1(C(F)(F)F)C[C@H](c2ccc(OC(F)(F)F)cc2Cl)[C@@H](C(=O)Nc2ccc([C@@H](O)CO)nc2)O1` (single isomer, unassigned) [Compound 61, rel-(2S,3R,5S)-3-(2-chloro-4-(trifluoromethoxy)phenyl)-N-(6-((R*)-1,2-dihydroxyethyl)pyridin-3-yl)-5-methyl-5-(trifluoromethyl)tetrahydrofuran-2-carboxamide]: no less than 1000 nM.
In the case of `C[C@]1(C(F)(F)F)C[C@@H](c2ccc(OC(F)(F)F)cc2Cl)[C@H](C(=O)Nc2ccc([C@@H](O)CO)nc2)O1` (single isomer, unassigned) [Compound 62, rel-(2R,3S,5R)-3-(2-chloro-4-(trifluoromethoxy)phenyl)-N-(6-((R*)-1,2-dihydroxyethyl)pyridin-3-yl)-5-methyl-5-(trifluoromethyl)tetrahydrofuran-2-carboxamide] it was 100 to 1000 nM; in that of `C[C@@]1(C(F)(F)F)C[C@@H](c2ccc(OC(F)(F)F)cc2Cl)[C@H](C(=O)Nc2ccc([C@@H](O)CO)nc2)O1` (single isomer, unassigned) [Compound 63, rel-(2R,3S,5S)-3-(2-chloro-4-(trifluoromethoxy)phenyl)-N-(6-((R*)-1,2-dihydroxyethyl)pyridin-3-yl)-5-methyl-5-(trifluoromethyl)tetrahydrofuran-2-carboxamide], no less than 1000 nM.
Next, `C[C@]1(C(F)(F)F)C[C@H](c2ccc(OC(F)(F)F)cc2Cl)[C@@H](C(=O)Nc2ccc([C@@H](O)CO)nc2)O1` (single isomer, unassigned) [Compound 64, rel-(2S,3R,5R)-3-(2-chloro-4-(trifluoromethoxy)phenyl)-N-(6-((R*)-1,2-dihydroxyethyl)pyridin-3-yl)-5-methyl-5-(trifluoromethyl)tetrahydrofuran-2-carboxamide]: no less than 1000 nM; `Cc1c([C@@H]2[C@@H](C(=O)Nc3ccc([C@@H](O)CO)nc3)O[C@@](C)(C(F)(F)F)[C@H]2C)ccc(F)c1F` (single isomer, unassigned) [Compound 65, rel-(2S,3R,4S,5R)-3-(3,4-difluoro-2-methylphenyl)-N-(6-((R*)-1,2-dihydroxyethyl)pyridin-3-yl)-4,5-dimethyl-5-(trifluoromethyl)tetrahydrofuran-2-carboxamide]: no less than 1000 nM; `Cc1c([C@H]2[C@H](C(=O)Nc3ccc([C@@H](O)CO)nc3)O[C@@](C)(C(F)(F)F)[C@H]2C)ccc(F)c1F` (single isomer, unassigned) [Compound 66, rel-(2R,3S,4S,5R)-3-(3,4-difluoro-2-methylphenyl)-N-(6-((R*)-1,2-dihydroxyethyl)pyridin-3-yl)-4,5-dimethyl-5-(trifluoromethyl)tetrahydrofuran-2-carboxamide]: 10 to 100 nM.
Consider `Cc1c([C@@H]2[C@@H](C)[C@@](C)(C(F)(F)F)O[C@H]2C(=O)Nc2ccc([C@@H](O)CO)nc2)ccc(F)c1F` (single isomer, unassigned) [Compound 67, rel-(2R,3S,4R,5S)-3-(3,4-difluoro-2-methylphenyl)-N-(6-((R*)-1,2-dihydroxyethyl)pyridin-3-yl)-4,5-dimethyl-5-(trifluoromethyl)tetrahydrofuran-2-carboxamide], for which the IC50 was no less than 1000 nM.
`Cc1c([C@@H]2[C@@H](C(=O)Nc3ccc([C@@H](O)CO)nc3)O[C@](C)(C(F)(F)F)[C@@H]2C)ccc(F)c1F` (single isomer, unassigned) [Compound 68, rel-(2S,3R,4R,5S)-3-(3,4-difluoro-2-methylphenyl)-N-(6-((R*)-1,2-dihydroxyethyl)pyridin-3-yl)-4,5-dimethyl-5-(trifluoromethyl)tetrahydrofuran-2-carboxamide] displayed an IC50 of no less than 1000 nM.
In the case of `COc1c([C@@H]2[C@@H](C(=O)Nc3ccc([C@@H](O)CO)nc3)O[C@](C)(C(F)(F)F)[C@@H]2C)cccc1C(F)(F)F` (single isomer, unassigned) [Compound 69, rel-(2S,3R,4R,5S)-N-(6-((R*)-1,2-dihydroxyethyl)pyridin-3-yl)-3-(2-methoxy-3-(trifluoromethyl)phenyl)-4,5-dimethyl-5-(trifluoromethyl)tetrahydrofuran-2-carboxamide] it was no less than 1000 nM; in that of `COc1c([C@H]2[C@H](C(=O)Nc3ccc([C@@H](O)CO)nc3)O[C@@](C)(C(F)(F)F)[C@H]2C)cccc1C(F)(F)F` (single isomer, unassigned) [Compound 70, rel-(2R,3S,4S,5R)-N-(6-((R*)-1,2-dihydroxyethyl)pyridin-3-yl)-3-(2-methoxy-3-(trifluoromethyl)phenyl)-4,5-dimethyl-5-(trifluoromethyl)tetrahydrofuran-2-carboxamide], less than 10 nM.
Next, `COc1c([C@H]2[C@H](C(=O)Nc3cnc(C(O)CO)nc3)O[C@@](C)(C(F)(F)F)[C@H]2C)cccc1C(F)(F)F` (single isomer, unassigned) [Compound 71]: 100 to 1000 nM; `COc1c([C@@H]2[C@@H](C(=O)Nc3cnc(C(O)CO)nc3)O[C@](C)(C(F)(F)F)[C@@H]2C)cccc1C(F)(F)F` (single isomer, unassigned) [Compound 72]: no less than 1000 nM.
Next, `COc1c([C@H]2[C@H](C(=O)Nc3cnc(C(O)CO)nc3)O[C@@](C)(C(F)(F)F)[C@H]2C)cccc1C(F)(F)F` (single isomer, unassigned) [Compound 73]: 10 to 100 nM; `CCOc1ccc([C@H]2[C@H](C(=O)Nc3ccc([C@@H](O)CO)nc3)O[C@@](C)(C(F)(F)F)[C@H]2C)c2c1OC(F)(F)O2` (single isomer, unassigned) [Compound 75, rel-(2R,3S,4S,5R)-N-(6-((R*)-1,2-dihydroxyethyl)pyridin-3-yl)-3-(7-ethoxy-2,2-difluorobenzo[d][1,3]dioxol-4-yl)-4,5-dimethyl-5-(trifluoromethyl)tetrahydrofuran-2-carboxamide]: no less than 1000 nM.
Compound `Cc1c([C@@H]2[C@@H](C)[C@@](C)(C(F)(F)F)O[C@H]2C(=O)Nc2ccc(CO)nc2)ccc(F)c1F` (single isomer, unassigned) [Compound 77] gave an IC50 of no less than 1000 nM.
In the case of `Cc1c([C@@H]2[C@@H](C(=O)Nc3ccc(CO)nc3)O[C@](C)(C(F)(F)F)[C@@H]2C)ccc(F)c1F` (single isomer, unassigned) [Compound 78] it was no less than 1000 nM; in that of `Cc1c([C@@H]2[C@@H](C(=O)Nc3ccc(CO)nc3)O[C@@](C)(C(F)(F)F)[C@H]2C)ccc(F)c1F` (single isomer, unassigned) [Compound 79], no less than 1000 nM.
Next, `Cc1c([C@H]2[C@H](C(=O)Nc3ccc(CO)nc3)O[C@@](C)(C(F)(F)F)[C@H]2C)ccc(F)c1F` (single isomer, unassigned) [Compound 80]: less than 10 nM.

By IC50 is commonly meant the point on the concentration scale where inhibition reaches its midpoint. Low values mean greater potency in that assay, high ones weaker potency in that assay.
